Laboratory results as given in patent US20130035302A1, “USE OF […] ANALOGUES AND DERIVATIVES THEREOF FOR TREATING AND/OR PREVENTING NEURODEGENERATIVE DISEASES LINKED TO TAU AND BETA AMYLOID” (UNIVERSIDADE DE SANTIAGO DE COMPOSTELA, priority 2010, published 2013).

Assays:
β-amyloid = experiment: Intracellular β-amyloid expression, immunocytometry with 6E10 antibody; type: cell-based, mouse; details: 3xTg-AD neocortical cultures, 1 nM yessotoxin between days 3 and 7 of culture; **p<0.005 vs transgenic cultures, n=3
Source text: (§1) In order to carry out the experiments of the present invention, either an in vitro cortical neuronal model with simultaneous overexpression of Tau and β-amyloid, obtained from a model of Alzheimer's disease in triple-transgenic (3xTg-AD or 3xTg) mice, obtainable via the detailed procedure in the international patent application WO 2003/053136 and provided by the title holders of this application, or an in vitro cortical neuronal model obtained from non-transgenic (no Tg) mice was used.
(§2) The effect of yessotoxin on overexpression of β-amyloid and Tau hyperphosphorylation was determined by immunocytometric and Western blot techniques. Primary neuronal cultures were treated with 1 nM yessotoxin between days 3 and 7 of culture. The cells were then processed following the usual protocols for immunocytometry and Western blot. For immunocytometric and Western blot studies, protein expression was evaluated using 6E10 anti-β-amyloid primary antibodies at a dilution of 1:500, AT8 anti-Tau (Tau phosphorylated on Ser202, dilution 1:1000) and AT100 anti-Tau (Tau phosphorylated on Thr212 and Ser214, dilution 1:1000). […] Total protein concentration was determined by Bradford's method using bovine albumin as standard. […] The membranes were incubated with the primary antibodies, washed, and then incubated with a secondary antibody linked to HRP; the immunoreactivity was detected by chemiluminescence. […]

[1] = Paz et al., Marine Drugs 2008; cited from earlier work
[2] = test system: primary cortical cultures; experiment: Cellular viability, Alamar Blue fluorescence assay; type: cell-based, mouse; details: primary cortical neurones, up to concentrations of 1 nM, Alamar Blue 10%
Source text: as §1
The primary cortical cultures in the present invention were obtained from 3xTg-AD mouse embryos of 15-17 days of gestation and the wild cultures were obtained from non-3xTg control mouse embryos of the same strain. The effect of the compounds used in this invention on cellular viability was estimated by a fluorescence assay using the Alamar Blue viability indicator. To carry out the assay, primary cortical cultures seeded on 96-well plates were used. The neuronal cells were incubated with yessotoxin, which was added to the culture medium at different concentrations, and the effect on in vitro neuronal viability at different treatment times was determined. The maximum concentration of yessotoxin evaluated was 1 nM and the concentration of Alamar blue was 10%.
The reaction volume used was 200 μl. Fluorescence was measured at wavelengths of 530 nm (excitation) and 590 nm (emission).

[3] = test system: Tau phosphorylated on Thr212 and Ser214; experiment: Phosphorylated Tau (Thr212 and Ser214), Western blot with AT100 antibody; type: cell-based, mouse; details: 3xTg-AD cortical cultures, 1 nM yessotoxin between days 3 and 7 of culture; n=3
Source text: as §1, §2

[4] = test system: Tau phosphorylated on Ser202; experiment: Phosphorylated Tau (Ser202), Western blot with AT8 antibody; type: cell-based, mouse; details: 3xTg-AD cortical cultures, 1 nM yessotoxin between days 3 and 7 of culture; *p<0.05, n=3
Source text: as §1, §2

Substance: yessotoxin
- overexpression of β-amyloid (6E10 immunoreactivity) (β-amyloid): significant reduction of overexpression of β-amyloid
- oral toxicity [1]: does not exhibit oral toxicity
- effect on in vitro cell viability [2]: did not affect in vitro cell viability
- reduction of Tau phosphorylation (AT100, Thr212 and Ser214) [3]: 12%
- Tau phosphorylation (AT8, Ser202) [4]: significant reduction of Tau phosphorylation
